In patent US7160898B2, “Pharmacological treatment for sleep apnea” (Board of Trustees of The University of Illinois, priority 2002, dated 2007):
“Also recorded” adds a separate entry of the source.

Tested on: spontaneous sleep-related central apneas
Test: Induction and suppression of sleep apneas by serotonin and GR38032F (Example 3)
Assay type: in vivo, rat (Sprague-Dawley)
Protocol: Ten adult male Sprague-Dawley rats (Sasco-King, Wilmington, Mass.; 300 g) were maintained on a 12-h light (08:00–20:00 hour)/12-hour dark (20:00–08:00) cycle for one week, housed in individual cages, and given ad libitum access to food and water. Following the one week of acclimatization, animals were prepared for physiological testing via the surgical procedures (i.e., implantation of cortical electrodes for EEG recording and neck muscle electrodes for EMG recording, implantation of a radiotelemetry transmitter for BP and HP monitoring) as set forth above in Example 1. After completion of the surgical procedures, animals were allowed a one week recovery period prior to use in the present study. Each animal was recorded on four occasions, with recordings for an individual animal separated by at least three days. Fifteen minutes prior to each recording, each animal received (via intraperitoneal injection), in random order, one of the following: (a) saline solution (control); (b) 0.79 mg/kg serotonin; (c) 0.1 mg/kg GR38032F plus 0.79 mg/kg serotonin; or (d) 0.1 mg/kg GR38032F. For the GR38032F+serotonin test group, 0.1 mg/kg GR38032F was administered at time 09:30 followed by 0.79 mg/kg serotonin at time 09:45. Polygraphic recordings were made from 10:00–16:00. Respiration BP, EEG, and EMG data were determined and recorded via the experimental procedure as specifically set forth above in Example 2. As in Example 2, sleep apneas, defined as cessation of respiratory effort for at least 2.5 s, were scored for each recording session and were associated with the stage in which they occurred: NREM or REM sleep. The duration requirement of 2.5 s represents at least two “missed” breaths, which is analogous to a 10-s apnea duration requirement in humans. The effects of sleep stage (NREM vs REM) and injection (control vs. administration of either serotonin alone, GR38032F+serotonin, or GR38032F alone) on apnea indexes, respiratory pattern, BP, and HP were tested using analysis of variance (ANOVA) with repeated measures. Multiple comparisons were controlled using Fisher's protected least-significance difference (PLSD). One-way ANOVA was also performed by nonparametric (Kruskal-Wallis) analysis. Conclusions using parametric and nonparametric ANOVA were identical in all cases.

## Cc1nccn1CC1CCc2c(c3ccccc3n2C)C1=O.Cl.O.O (stereo not drawn) [GR38032F, 1,2,3,9-tetrahydro-9-methyl-3-[(2-methylimidazol-1-yl)methyl]carbazole-4-one, hydrochloride, dihydrate]
0.1 mg/kg GR38032F i.p. 15 min before 0.79 mg/kg serotonin, hydrochloride, dihydrate
  antagonism of the serotonin-induced increase of REM sleep apneas: abolished; also recorded: fully blocked
GR38032F alone 0.1 mg/kg i.p.
  effect on REM sleep spontaneous apneas: had no effect on REM sleep spontaneous apneas
i.p., serotonin 0.79 mg/kg, GR38032F 0.1 mg/kg, 6 hour recording
  spontaneous apnea index during NREM sleep: not affected by any drug treatment
